Earlier results, collected in Sander's compilation of Henry's law constants (doi:10.1021/es8005783).

Assay: Henry solubility constant Hcp at 298.15 K (mol/(m3 Pa))
Details: reference: Hilal et al. (2008); cited value

| Henry solubility constant Hcp | Compound |
| --- | --- |
| 0.0038 | CCc1cccc(CC)c1 [1,3-diethylbenzene] |
| 0.065 | CCC(C)N (stereo not drawn) [2-butanamine] |
| 0.016 | C=C(C)C(=O)OCC [2-methyl-2-propenoic acid, ethyl ester] |
| 7.2e-06 | FC(F)(F)Cl [chlorotrifluoromethane] |
| 0.72 | CC(C)CN [2-methyl-1-propanamine] |
| 6.9 | CCCCCCCCC(=O)O [nonanoic acid] |
| 6.2e-06 | CCCC(C)C [2-methylpentane] |
| 0.026 | CCCN(CCC)CCC [N,N-dipropyl-1-propanamine] |
| 0.0012 | CCc1ccccc1CC [1,2-diethylbenzene] |
| 11 | COCC(C)O (stereo not drawn) [1-methoxy-2-propanol] |
| 0.001 | C1=CCC=CC1 [1,4-cyclohexadiene] |
| 0.22 | CC(C)N [2-propanamine] |
| 0.02 | BrC(Br)(Br)Br [tetrabromomethane] |

| Compound | Henry solubility constant Hcp |
| --- | --- |
| FC(F)(Cl)Cl [dichlorodifluoromethane] | 3.6e-05 |
| FC(F)(F)C(F)(Cl)Cl [1,1-dichlorotetrafluoroethane] | 7.5e-06 |
| ClC1=C(Cl)C2(Cl)C3C4OC4C(Cl)C3C1(Cl)C2(Cl)Cl (stereo not drawn) [heptachlorepoxide] | 0.54 |
| ClC1=C(Cl)[C@]2(Cl)[C@H]3[C@H]([C@@H]4C=C[C@H]3C4)[C@@]1(Cl)C2(Cl)Cl [aldrin] | 0.02 |
| ClC=CCCl [1,3-dichloropropene] | 0.0058 |
| ClC(Cl)Br [bromodichloromethane] | 0.0077 |
| ClC1=C(Cl)[C@]2(Cl)[C@@H]3[C@@H]4C[C@@H]([C@H]5O[C@@H]45)[C@@H]3[C@@]1(Cl)C2(Cl)Cl [dieldrin] | 0.17 |
| ClC(Cl)=C(Cl)C(Cl)=C(Cl)Cl [hexachlorobutadiene] | 0.00097 |
| Cc1c(COC(=O)[C@@H]2[C@H](/C=C(\Cl)C(F)(F)F)C2(C)C)cccc1-c1ccccc1 [bifenthrin] | 9.9 |
| O=[N+]([O-])c1ccccc1 [nitrobenzene] | 0.42 |
